Test results taken from US9580437B2, “Triazolopyrimidine compounds and uses thereof” (Novartis AG, priority 2014, dated 2017).
pIC50: −log10 of the molar value. Values belong to the compound of their own block, whether it stands above or below them.

Key:
EED (1-441)-His protein = EED (1-441)-His protein (Homo sapiens (Human), UniProt O75530); test: EED-H3K27Me3 peptide competition binding assay by AlphaScreen; conditions: read-out: (a) IC50 EED Alphascreen binding Qualified
Text: EED-H3K27Me3 peptide competition binding assay by AlphaScreen (α-screen)

[1] = biological target: wild type PRC2 (wtPRC2) complex (Homo sapiens (Human), UniProt O75530); test: EED LC-MS assay; type: biochemical; conditions: read-out: (b) IC50 EED LC-MS Qualified
Experimental: A 6 μL solution of 3 μM of the peptide substrate H3K27Me0 (histone H3[21-44]-biotin) in reaction buffer was added to initiate each reaction. […] ELISA (H3K27 Methylation) Assay

wild type PRC2 (wtPRC2) complex, sequence (O75530 whole entry): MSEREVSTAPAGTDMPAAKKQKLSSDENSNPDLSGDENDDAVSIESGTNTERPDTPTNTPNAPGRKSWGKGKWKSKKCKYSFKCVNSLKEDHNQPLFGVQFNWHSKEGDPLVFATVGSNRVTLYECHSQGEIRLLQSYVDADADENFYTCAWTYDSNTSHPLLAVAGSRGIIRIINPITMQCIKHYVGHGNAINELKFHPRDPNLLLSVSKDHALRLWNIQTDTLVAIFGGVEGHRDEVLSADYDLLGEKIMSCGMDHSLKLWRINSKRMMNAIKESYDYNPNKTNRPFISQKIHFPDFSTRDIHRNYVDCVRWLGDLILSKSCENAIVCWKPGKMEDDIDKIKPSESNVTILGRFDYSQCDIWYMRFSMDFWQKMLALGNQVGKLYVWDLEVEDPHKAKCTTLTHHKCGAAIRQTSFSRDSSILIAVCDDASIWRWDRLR
wild type PRC2 (wtPRC2) complex, sequence (Q15910 whole entry partner): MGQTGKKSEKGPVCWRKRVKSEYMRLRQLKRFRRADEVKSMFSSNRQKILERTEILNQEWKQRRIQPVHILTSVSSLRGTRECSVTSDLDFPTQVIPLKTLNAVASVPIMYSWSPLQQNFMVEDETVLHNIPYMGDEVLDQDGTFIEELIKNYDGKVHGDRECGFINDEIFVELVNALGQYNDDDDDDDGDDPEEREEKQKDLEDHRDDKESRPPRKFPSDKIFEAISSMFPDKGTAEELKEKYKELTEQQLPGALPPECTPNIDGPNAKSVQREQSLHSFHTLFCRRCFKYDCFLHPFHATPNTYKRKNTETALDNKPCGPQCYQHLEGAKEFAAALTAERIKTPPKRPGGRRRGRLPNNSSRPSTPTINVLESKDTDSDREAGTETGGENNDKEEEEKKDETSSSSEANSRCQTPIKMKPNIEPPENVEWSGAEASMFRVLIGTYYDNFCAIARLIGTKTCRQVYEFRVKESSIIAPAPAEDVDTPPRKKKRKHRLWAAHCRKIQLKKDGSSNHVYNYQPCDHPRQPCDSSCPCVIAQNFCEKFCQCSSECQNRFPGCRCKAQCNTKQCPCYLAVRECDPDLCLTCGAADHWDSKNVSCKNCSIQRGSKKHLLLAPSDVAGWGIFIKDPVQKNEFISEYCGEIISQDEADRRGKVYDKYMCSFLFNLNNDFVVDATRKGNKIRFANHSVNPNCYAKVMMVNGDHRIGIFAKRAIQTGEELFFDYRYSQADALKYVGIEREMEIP
wild type PRC2 (wtPRC2) complex, sequence (Q15022 whole entry partner): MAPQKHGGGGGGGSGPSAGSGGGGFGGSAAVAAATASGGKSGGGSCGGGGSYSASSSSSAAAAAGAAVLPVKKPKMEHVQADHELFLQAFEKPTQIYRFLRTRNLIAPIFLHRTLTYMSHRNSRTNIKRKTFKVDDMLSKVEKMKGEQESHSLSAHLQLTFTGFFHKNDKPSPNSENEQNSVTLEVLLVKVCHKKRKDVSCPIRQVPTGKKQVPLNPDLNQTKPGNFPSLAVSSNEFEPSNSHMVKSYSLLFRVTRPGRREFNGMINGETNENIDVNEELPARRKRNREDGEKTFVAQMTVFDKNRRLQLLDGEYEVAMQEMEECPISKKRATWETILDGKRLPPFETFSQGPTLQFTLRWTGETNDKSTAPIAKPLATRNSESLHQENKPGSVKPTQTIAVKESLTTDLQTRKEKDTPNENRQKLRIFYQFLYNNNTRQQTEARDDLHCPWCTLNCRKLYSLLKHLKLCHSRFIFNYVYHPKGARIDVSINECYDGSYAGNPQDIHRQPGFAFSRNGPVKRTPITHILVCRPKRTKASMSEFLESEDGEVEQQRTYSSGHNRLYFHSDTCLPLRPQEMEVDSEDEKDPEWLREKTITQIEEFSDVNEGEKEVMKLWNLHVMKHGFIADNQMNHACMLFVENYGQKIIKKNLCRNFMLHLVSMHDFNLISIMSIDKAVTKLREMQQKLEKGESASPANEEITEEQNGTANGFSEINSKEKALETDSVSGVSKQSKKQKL
EED (1-441)-His protein, sequence (O75530 whole entry): as the sequence (O75530 whole entry) above

pIC50 (EED (1-441)-His protein): 7.73
pIC50 [1]: 7.55
SMILES: CN1CCN(c2cc(-c3cnc(NCc4cccc5c4CCO5)n4cnnc34)ccn2)CC1 [Example 18, N-((2,3-dihydrobenzofuran-4-yl)methyl)-8-(2-(4-methylpiperazin-1-yl)pyridin-4-yl)-[1,2,4]triazolo[4,3-c]pyrimidin-5-amine]

pIC50 (EED (1-441)-His protein): 7.72
pIC50 [1]: 7.72
SMILES: CS(=O)(=O)Nc1ccc(-c2cnc(NCc3cccc4c3CCO4)n3cnnc23)cc1 [Example 19, N-(4-(5-(((2,3-dihydrobenzofuran-4-yl)methyl)amino)-[1,2,4]triazolo[4,3-c]pyrimidin-8-yl)phenyl)methanesulfonamide]

pIC50 (EED (1-441)-His protein): 7.84
pIC50 [1]: 7.77
SMILES: CN1CCN(c2ccc(-c3cnc(NCc4cccc5c4CCO5)n4cnnc34)cn2)CC1 [Example 20, N-((2,3-dihydrobenzofuran-4-yl)methyl)-8-(6-(4-methylpiperazin-1-yl)pyridin-3-yl)-[1,2,4]triazolo[4,3-c]pyrimidin-5-amine]

pIC50 (EED (1-441)-His protein): 7.60
pIC50 [1]: 7.59
SMILES: COc1ccc(-c2cnc(NCc3cccc4c3CCO4)n3cnnc23)cn1 [Example 21, N-((2,3-dihydrobenzofuran-4-yl)methyl)-8-(6-methoxypyridin-3-yl)-[1,2,4]triazolo[4,3-c]pyrimidin-5-amine]

pIC50 (EED (1-441)-His protein): 5.70
pIC50 [1]: 5.74
SMILES: CC1Cc2c(CNc3ncc(-c4ccc(CN(C)C)cc4)c4nncn34)cccc2O1 (stereo not shown) [Example 22, 8-(4-((dimethylamino)methyl)phenyl)-N-((2-methyl-2,3-dihydrobenzofuran-4-yl)methyl)-[1,2,4]triazolo[4,3-c]pyrimidin-5-amine]

pIC50 (EED (1-441)-His protein): 7.51
pIC50 [1]: 7.59
SMILES: CN(C)Cc1ccc(-c2cnc(NCc3c(F)ccc4c3CCO4)n3cnnc23)cc1 [Example 23, 8-(4-((dimethylamino)methyl)phenyl)-N-((5-fluoro-2,3-dihydrobenzofuran-4-yl)methyl)-[1,2,4]triazolo[4,3-c]pyrimidin-5-amine]

pIC50 (EED (1-441)-His protein): 7.52
pIC50 [1]: 7.43
SMILES: Cc1nn(C)c(C)c1-c1cnc(NCc2cccc3c2CCO3)n2cnnc12 [Example 24, N-((2,3-dihydrobenzofuran-4-yl)methyl)-8-(1,3,5-trimethyl-1H-pyrazol-4-yl)-[1,2,4]triazolo[4,3-c]pyrimidin-5-amine]

pIC50 (EED (1-441)-His protein): 7.51
pIC50 [1]: 7.35
SMILES: Cn1cc(-c2cnc(NCc3cccc4c3CCO4)n3cnnc23)cn1 [Example 25, N-((2,3-dihydrobenzofuran-4-yl)methyl)-8-(1-methyl-1H-pyrazol-4-yl)-[1,2,4]triazolo[4,3-c]pyrimidin-5-amine]

pIC50 (EED (1-441)-His protein): 8.00
pIC50 [1]: 7.77
SMILES: CS(=O)(=O)c1ccc(-c2cnc(NCc3cccc4c3CCO4)n3cnnc23)c(F)c1 [Example 26, N-((2,3-dihydrobenzofuran-4-yl)methyl)-8-(2-fluoro-4-(methylsulfonyl)phenyl)-[1,2,4]triazolo[4,3-c]pyrimidin-5-amine]

pIC50 (EED (1-441)-His protein): 7.70
pIC50 [1]: 7.33
SMILES: CS(=O)(=O)c1cccc(-c2cnc(NCc3cccc4c3CCO4)n3cnnc23)c1 [Example 27, N-((2,3-dihydrobenzofuran-4-yl)methyl)-8-(3-(methylsulfonyl)phenyl)-[1,2,4]triazolo[4,3-c]pyrimidin-5-amine]

pIC50 (EED (1-441)-His protein): 7.95
pIC50 [1]: 7.56
SMILES: CS(=O)(=O)c1ccc(-c2cnc(NCc3cccc4c3CCO4)n3cnnc23)cn1 [Example 28, N-((2,3-dihydrobenzofuran-4-yl)methyl)-8-(6-(methylsulfonyl)pyridin-3-yl)-[1,2,4]triazolo[4,3-c]pyrimidin-5-amine]

pIC50 (EED (1-441)-His protein): 8.09
pIC50 [1]: 7.84
SMILES: O=S(=O)(c1ccc(-c2cnc(NCc3cccc4c3CCO4)n3cnnc23)cc1)C1CCNCC1 [Example 29, N-((2,3-dihydrobenzofuran-4-yl)methyl)-8-(4-(piperidin-4-ylsulfonyl)phenyl)-[1,2,4]triazolo[4,3-c]pyrimidin-5-amine]

pIC50 (EED (1-441)-His protein): 8.28
pIC50 [1]: 7.61
SMILES: Cc1nn(C)cc1-c1cnc(NCc2cccc3c2CCO3)n2cnnc12 [Example 30, N-((2,3-dihydrobenzofuran-4-yl)methyl)-8-(1,3-dimethyl-1H-pyrazol-4-yl)-[1,2,4]triazolo[4,3-c]pyrimidin-5-amine]

pIC50 (EED (1-441)-His protein): 7.52
pIC50 [1]: 7.67
SMILES: Fc1ccccc1-c1cnc(NCc2cccc3c2CCO3)n2cnnc12 [Example 31, N-((2,3-dihydrobenzofuran-4-yl)methyl)-8-(2-fluorophenyl)-[1,2,4]triazolo[4,3-c]pyrimidin-5-amine]

pIC50 (EED (1-441)-His protein): 7.36
pIC50 [1]: 7.64
SMILES: Clc1ccccc1-c1cnc(NCc2cccc3c2CCO3)n2cnnc12 [Example 32, 8-(2-chlorophenyl)-N-((2,3-dihydrobenzofuran-4-yl)methyl)-[1,2,4]triazolo[4,3-c]pyrimidin-5-amine]

pIC50 [1]: 6.74
SMILES: Cc1ncccc1-c1cnc(NCc2c(F)ccc3occc23)n2cnnc12 [Example 207, N-((5-fluorobenzofuran-4-yl)methyl)-8-(2-methylpyridin-3-yl)-[1,2,4]triazolo[4,3-c]pyrimidin-5-amine]

The next lines start with the compound.

SMILES: Cc1cc(-c2cnc(NCc3c(F)ccc4c3CCO4)n3cnnc23)n(C)n1 [Example 1, 8-(1,3-dimethyl-1H-pyrazol-5-yl)-N-((5-fluoro-2,3-dihydrobenzofuran-4-yl)methyl)-[1,2,4]triazolo[4,3-c]pyrimidin-5-amine]
pIC50 (EED (1-441)-His protein): 8.39
pIC50 [1]: 8.09

SMILES: Cc1ncc(-c2cnc(NCc3c(F)ccc4c3CCO4)n3cnnc23)c(C)n1 [Example 3, 8-(2,4-Dimethylpyrimidin-5-yl)-N-((5-fluoro-2,3-dihydrobenzofuran-4-yl)methyl)-[1,2,4]triazolo[4,3-c]pyrimidin-5-amine]
pIC50 (EED (1-441)-His protein): 8.42
pIC50 [1]: 8.19

SMILES: Cc1nn(C(C)C)cc1-c1cnc(NCc2c(F)ccc3c2CCO3)n2cnnc12 [Example 4, N-((5-Fluoro-2,3-dihydrobenzofuran-4-yl)methyl)-8-(1-isopropyl-3-methyl-1H-pyrazol-4-yl)-[1,2,4]triazolo[4,3-c]pyrimidin-5-amine]
pIC50 (EED (1-441)-His protein): 8.49
pIC50 [1]: 8.41

SMILES: COc1cc(C)c(-c2cnc(NCc3c(F)ccc4c3CCO4)n3cnnc23)cn1 [Example 5, N-((5-fluoro-2,3-dihydrobenzofuran-4-yl)methyl)-8-(6-methoxy-4-methylpyridin-3-yl)-[1,2,4]triazolo[4,3-c]pyrimidin-5-amine]
pIC50 (EED (1-441)-His protein): 8.32
pIC50 [1]: 8.01

SMILES: Cc1nc(C2CC2)ccc1-c1cnc(NCc2c(F)ccc3c2CCO3)n2cnnc12 [Example 6, 8-(6-Cyclopropyl-2-methylpyridin-3-yl)-N-((5-fluoro-2,3-dihydrobenzofuran-4-yl)methyl)-[1,2,4]triazolo[4,3-c]pyrimidin-5-amine]
pIC50 (EED (1-441)-His protein): 8.28
pIC50 [1]: 8.11

SMILES: OCc1ncccc1-c1cnc(NCc2c(F)ccc3c2CCO3)n2cnnc12 [Example 7, (3-(5-(((5-fluoro-2,3-dihydrobenzofuran-4-yl)methyl)amino)-[1,2,4]triazolo[4,3-c]pyrimidin-8-yl)pyridin-2-yl)methanol]
pIC50 (EED (1-441)-His protein): 8.32
pIC50 [1]: 8.03

SMILES: Cc1nc(C2CC2)ncc1-c1cnc(NCc2c(F)ccc3c2CCO3)n2cnnc12 [Example 8, 8-(2-cyclopropyl-4-methylpyrimidin-5-yl)-N-((5-fluoro-2,3-dihydrobenzofuran-4-yl)methyl)-[1,2,4]triazolo[4,3-c]pyrimidin-5-amine]
pIC50 (EED (1-441)-His protein): 8.31
pIC50 [1]: 8.14

SMILES: Cc1nc(OC(C)C)ncc1-c1cnc(NCc2c(F)ccc3c2CCO3)n2cnnc12 [Example 9, N-((5-fluoro-2,3-dihydrobenzofuran-4-yl)methyl)-8-(2-isopropoxy-4-methylpyrimidin-5-yl)-[1,2,4]triazolo[4,3-c]pyrimidin-5-amine]
pIC50 (EED (1-441)-His protein): 8.39
pIC50 [1]: 8.10

SMILES: [O-][n+]1cccc(-c2cnc(NCc3c(F)ccc4c3CCO4)n3cnnc23)c1 [Example 10, 3-(5-(((5-fluoro-2,3-dihydrobenzofuran-4-yl)methyl)amino)-[1,2,4]triazolo[4,3-c]pyrimidin-8-yl)pyridine 1-oxide]
pIC50 (EED (1-441)-His protein): 8.14
pIC50 [1]: 7.86

SMILES: CN(C)Cc1ccc(-c2cnc(NCc3cccc4c3CCO4)n3cnnc23)cc1 [Example 11, N-((2,3-dihydrobenzofuran-4-yl)methyl)-8-(4-((dimethylamino)methyl)phenyl)-[1,2,4]triazolo[4,3-c]pyrimidin-5-amine]
pIC50 (EED (1-441)-His protein): 8.16
pIC50 [1]: 7.70

SMILES: CS(=O)(=O)c1ccc(-c2cnc(NCc3cccc4c3CCO4)n3cnnc23)cc1 [Example 12, N-((2,3-dihydrobenzofuran-4-yl)methyl)-8-(4-(methylsulfonyl)phenyl)-[1,2,4]triazolo[4,3-c]pyrimidin-5-amine]
pIC50 (EED (1-441)-His protein): 8.10
pIC50 [1]: 7.80

SMILES: c1ccc(-c2cnc(NCc3cccc4c3CCO4)n3cnnc23)cc1 [Example 13, N-((2,3-dihydrobenzofuran-4-yl)methyl)-8-phenyl-[1,2,4]triazolo[4,3-c]pyrimidin-5-amine]
pIC50 (EED (1-441)-His protein): 7.27
pIC50 [1]: 7.32

SMILES: CC(c1ccc(-c2cnc(NCc3cccc4c3CCO4)n3cnnc23)cc1)N1CCCC1 (stereo not shown) [Example 14, N-((2,3-dihydrobenzofuran-4-yl)methyl)-8-(4-(1-(pyrrolidin-1-yl)ethyl)phenyl)-[1,2,4]triazolo[4,3-c]pyrimidin-5-amine]
pIC50 (EED (1-441)-His protein): 8.11
pIC50 [1]: 7.89

SMILES: CN(C)S(=O)(=O)c1ccc(-c2cnc(NCc3cccc4c3CCO4)n3cnnc23)cc1 [Example 15, 4-(5-(((2,3-dihydrobenzofuran-4-yl)methyl)amino)-[1,2,4]triazolo[4,3-c]pyrimidin-8-yl)-N,N-dimethylbenzenesulfonamide]
pIC50 (EED (1-441)-His protein): 7.89
pIC50 [1]: 7.69

SMILES: c1cncc(-c2cnc(NCc3cccc4c3CCO4)n3cnnc23)c1 [Example 16, N-((2,3-dihydrobenzofuran-4-yl)methyl)-8-(pyridin-3-yl)-[1,2,4]triazolo[4,3-c]pyrimidin-5-amine]
pIC50 (EED (1-441)-His protein): 7.97
pIC50 [1]: 7.62
